According to article PMC10733197, “Utilization of Rosuvastatin and Endogenous Biomarkers in Evaluating the Impact of Ritlecitinib on BCRP, OATP1B1, and OAT3 Transporter Activity” (Pharmaceutical Research, 2023):

Key:
Format in all cases: cell-based
[1] = target: T1, OATP1B3 (Homo sapiens, UniProt Q9NPD5); test: OATP1B3-mediated rosuvastatin uptake inhibition in transfected HEK293 cells; settings: for IC50: hepatic OATP1B3, RSV 0.3–0.5 µM as substrate, 1—3 min, HEK293, mean ± SD, n = 3
T1 construct: expressed in transfected cells; host or cells: HEK293
T1 sequence (Q9NPD5 1-702): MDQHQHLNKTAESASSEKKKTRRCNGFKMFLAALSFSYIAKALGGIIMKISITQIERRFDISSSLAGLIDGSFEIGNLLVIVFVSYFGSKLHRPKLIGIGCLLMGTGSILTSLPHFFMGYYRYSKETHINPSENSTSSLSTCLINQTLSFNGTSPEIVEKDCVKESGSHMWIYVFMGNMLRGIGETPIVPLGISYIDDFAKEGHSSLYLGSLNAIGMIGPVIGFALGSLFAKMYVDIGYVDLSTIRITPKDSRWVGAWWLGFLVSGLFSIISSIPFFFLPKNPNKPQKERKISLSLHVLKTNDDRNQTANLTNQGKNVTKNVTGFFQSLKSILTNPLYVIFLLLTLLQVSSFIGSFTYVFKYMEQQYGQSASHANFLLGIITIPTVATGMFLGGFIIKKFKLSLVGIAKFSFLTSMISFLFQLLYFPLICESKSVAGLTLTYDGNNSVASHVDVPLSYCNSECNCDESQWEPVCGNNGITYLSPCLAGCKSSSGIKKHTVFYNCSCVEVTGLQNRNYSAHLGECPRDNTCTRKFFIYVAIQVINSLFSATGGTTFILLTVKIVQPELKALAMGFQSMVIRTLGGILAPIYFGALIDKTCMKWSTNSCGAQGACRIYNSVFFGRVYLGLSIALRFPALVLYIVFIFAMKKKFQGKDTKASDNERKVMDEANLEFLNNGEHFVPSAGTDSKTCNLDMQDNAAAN
Experimental: (§1) Sources of human embryonic kidney (HEK) 293 cells expressing individual transfected human solute carriers (SLC), test substrates, and cell culture reagents, as well as detailed cell culture methods, incubations, and sample processing, have been described previously. SLC included hepatic OATP1B1, OATP1B3, and renal OAT1 and OAT3. […] Likewise, the uptake of non-labeled rosuvastatin (Biosynth, San Diego, CA) at 0.3—0.5 µM was determined for OATP1B1 and OATP1B3 at 1—3 min, and CP-I (Frontier Specialty Chemicals, Logan, UT) at 0.1 µM was determined for OATP1B1 and OATP1B3 at 10 min [14].
(§2) In all cases, ritlecitinib (0.018 to 1000 µM) and metabolite M2 (0.018 to 300 µM) was tested over a wide range of final concentrations dissolved in dimethyl sulfoxide (the final concentration of dimethyl sulfoxide in the assays was 1% v/v). For each transporter, the IC50 was estimated using a four-parameter logistic equation (Eq. 1) using GraphPad Prism software (GraphPad Software Inc, La Jolla, CA).1 %UptakeActivity=Bottom+(Top-Bottom)/1+10^(LogIC50-inhib*HillSlope)
At the end of the uptake and inhibition experiment, cellular accumulation of ^3H-PAH and ^3H-E3S was determined using liquid scintillation counting as previously described. Rosuvastatin uptake was determined using a tandem high performance liquid chromatography (LC)-mass spectrometry (MS) assay.

[2] = target: T2, OATP1B1 (Homo sapiens, UniProt Q9Y6L6); test: OATP1B1-mediated CP-I uptake inhibition in transfected HEK293 cells
T2 construct: expressed in transfected cells; host or cells: HEK293
T2 sequence (Q9Y6L6 1-691): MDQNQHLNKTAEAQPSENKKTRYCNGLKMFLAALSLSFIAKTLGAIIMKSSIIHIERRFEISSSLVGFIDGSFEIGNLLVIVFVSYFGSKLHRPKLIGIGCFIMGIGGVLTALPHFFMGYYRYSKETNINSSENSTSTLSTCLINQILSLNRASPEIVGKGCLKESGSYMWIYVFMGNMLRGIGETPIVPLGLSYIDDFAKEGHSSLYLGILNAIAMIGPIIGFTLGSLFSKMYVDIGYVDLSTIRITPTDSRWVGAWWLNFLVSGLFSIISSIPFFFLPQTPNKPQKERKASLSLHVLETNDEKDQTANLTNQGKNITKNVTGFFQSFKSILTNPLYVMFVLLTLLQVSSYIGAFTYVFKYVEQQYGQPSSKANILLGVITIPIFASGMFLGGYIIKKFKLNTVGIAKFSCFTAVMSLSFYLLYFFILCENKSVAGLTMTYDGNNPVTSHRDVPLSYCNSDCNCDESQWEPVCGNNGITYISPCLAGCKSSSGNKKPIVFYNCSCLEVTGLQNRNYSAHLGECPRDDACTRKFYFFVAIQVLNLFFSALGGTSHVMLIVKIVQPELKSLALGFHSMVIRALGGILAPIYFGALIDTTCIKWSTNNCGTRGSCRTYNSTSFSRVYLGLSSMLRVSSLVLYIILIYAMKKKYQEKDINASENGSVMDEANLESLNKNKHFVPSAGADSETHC
Experimental: as §1, §2
Uptake of CP-I was determined by analysis of the in vitro assay samples using an optimized LC-high resolution mass spectrometry (HRMS) method. In brief, dried samples were reconstituted in 150 µL of 0.1% formic acid and analyzed by LC-HRMS. Analyte separation and detection was achieved using a Shimadzu Nexera high performance LC system (Shimazdu Scientific, MA, USA) coupled to a Sciex API-6600 Q-TOF (time of flight) mass spectrometer with a Turbo IonDrive source (Sciex Corporation, MA, USA). Chromatographic separation was achieved using a Waters Acquity BEH C18 1.7µ 2.1 mm x 100 mm column and a binary mobile phase system consisting of 0.1% v/v formic acid and 0.1% v/v formic acid in acetonitrile, as mobile phase A and B, respectively. The column temperature was held at 60 °C and the flow rate was 0.55 mL/minute. The gradient program had initial conditions of 5% B which was held for 0.9 min, followed by a linear ramp to 95% B over 5.1 min, a hold for 1.0 min, and a return to starting conditions over 0.1 min with re-equilibration for 0.9 min (total run time of 8.0 min). Analyte detection was achieved using an API-6600 Q T-OF mass spectrometer with electrospray ionization (ESI). The mass spectrometer was operated in both TOF-MS and TOF-MS/MS mode with data collected over a 60 to 670 dalton mass range. TOF-MS/MS data were collected in the high-resolution mode. Quantification of CP-I levels was assessed using targeted TOF-MS/MS data with accumulation times of 150 and 35 ms, respectively, for CP-I and the internal standard (ISTD) verapamil. […]

[3] = target: T1, OATP1B3; test: OATP1B3-mediated CP-I uptake inhibition in transfected HEK293 cells
Experimental: as §1, §2
Uptake of CP-I was determined by analysis of the in vitro assay samples using an optimized LC-high resolution mass spectrometry (HRMS) method. In brief, dried samples were reconstituted in 150 µL of 0.1% formic acid and analyzed by LC-HRMS. Analyte separation and detection was achieved using a Shimadzu Nexera high performance LC system (Shimazdu Scientific, MA, USA) coupled to a Sciex API-6600 Q-TOF (time of flight) mass spectrometer with a Turbo IonDrive source (Sciex Corporation, MA, USA). Chromatographic separation was achieved using a Waters Acquity BEH C18 1.7µ 2.1 mm x 100 mm column and a binary mobile phase system consisting of 0.1% v/v formic acid and 0.1% v/v formic acid in acetonitrile, as mobile phase A and B, respectively. The column temperature was held at 60 °C and the flow rate was 0.55 mL/minute. The gradient program had initial conditions of 5% B which was held for 0.9 min, followed by a linear ramp to 95% B over 5.1 min, a hold for 1.0 min, and a return to starting conditions over 0.1 min with re-equilibration for 0.9 min (total run time of 8.0 min). Analyte detection was achieved using an API-6600 Q T-OF mass spectrometer with electrospray ionization (ESI). The mass spectrometer was operated in both TOF-MS and TOF-MS/MS mode with data collected over a 60 to 670 dalton mass range. TOF-MS/MS data were collected in the high-resolution mode. Quantification of CP-I levels was assessed using targeted TOF-MS/MS data with accumulation times of 150 and 35 ms, respectively, for CP-I and the internal standard (ISTD) verapamil. Data were processed using the MultiQuant software package using the targeted mass-to-charge transitions of 328.1 to 268.1201 ± 0.02 daltons and 238.1094 ± 0.02 daltons (summed ions) for CP-I, and 455.2 to 165.0907 ± 0.02 daltons for the ISTD (verapamil), to generate analyte/ISTD area ratios.

Row | Triggers Drug Interaction Cutoff ([1]; OATP1B3 (RSV)) | Cmax,u/IC50 ratio ([1]; OATP1B3 (RSV), Cmax,u used for metabolite M2) | Fraction Inhibited ([1]; OATP1B3 (RSV), Cmax,u/(Cmax,u + IC50) for M2 (Eq. 3)) | IC50 [1] [µM] | R-value ([1]; OATP1B3 (RSV), 1 + (Imax,inlet,u/IC50), cutoff 1.1 (FDA), 1.04 (EMA)) | Fraction Inhibited ([1]; OATP1B3 (RSV), Imax,inlet,u/(Imax,inlet,u + IC50) (Eq. 1)) | Fraction Inhibited ([1]; OATP1B3 (RSV), Imax,inlet,u/(Imax,inlet,u + IC50) (Eq. 1), listed as ritlecitinib) | Triggers Drug Interaction Cutoff ([2]; OATP1B1 (CP-I)) | R-value ([2]; OATP1B1 (CP-I), 1 + (Imax,inlet,u/IC50), cutoff 1.1 (FDA), 1.04 (EMA)) | Fraction Inhibited ([2]; OATP1B1 (CP-I), Imax,inlet,u/(Imax,inlet,u + IC50) (Eq. 1)) | IC50 ([2]; hepatic OATP1B1, CP-I 0.1 µM as substrate, 10 min, HEK293, mean ± SD, n = 3) [µM] | Triggers Drug Interaction Cutoff ([3]; OATP1B3 (CP-I)) | R-value ([3]; OATP1B3 (CP-I), 1 + (Imax,inlet,u/IC50), cutoff 1.1 (FDA), 1.04 (EMA)) | Fraction Inhibited ([3]; OATP1B3 (CP-I), Imax,inlet,u/(Imax,inlet,u + IC50) (Eq. 1)) | IC50 ([3]; hepatic OATP1B3, CP-I 0.1 µM as substrate, 10 min, HEK293) [µM] | inhibition at 10 min, 1000 µM ([3]; human, HEK293 cells transfected with OATP1B3, probe coproporphyrin I (CP-I), 0.1 µM, OATP1B3 (CP-I), 1000 µM, read-out: % inhibition at the highest concentration tested) [%] | SMILES
1 | Yes | 0.17 | 0.1 | 8.4 ± 0.2 | – | – | – | – | – | – | – | – | – | – | – | – | C[C@H]1CC[C@@H](Nc2ncnc3[nH]ccc23)CN1C(=O)CCSC[C@H](N)C(=O)O [M2]
2 | No | – | – | 934 ± 59 | 1.03 | 0.03 | ≤ 0.1 | Yes | 1.12 | 0.1 | 257 ± 8 | No | < 1.03 | < 0.03 | > 1000 | 23 | C=CC(=O)N1C[C@H](Nc2ncnc3[nH]ccc23)CC[C@@H]1C [Ritlecitinib, ritlecitinib]
